Assay results reported in publication PMC2928817 (PLoS Pathogens, 2010).

Columns and labels:
[1] = tested on: A/Vietnam/HN32060/2009 (VN32060r); set-up: species or system 2009 pandemic influenza A (H1N1) virus; conditions: in vivo
A/Osaka/164/2009 (O164s) [2] = tested on: A/Osaka/164/2009 (O164s); set-up: species or system 2009 pandemic influenza A (H1N1) virus; conditions: in vivo
[3] = tested on: A/Vietnam/HCM9727/2009 (VN9727s); set-up: species or system 2009 pandemic influenza A (H1N1) virus; conditions: in vivo
A/Osaka/180/2009 (O180r) [4] = tested on: A/Osaka/180/2009 (O180r); set-up: species or system 2009 pandemic influenza A (H1N1) virus; conditions: in vivo
A/Osaka/164/2009 (O164s) [5] = assay type: cell-based, 2009 pandemic influenza A (H1N1) virus
[6] = tested on: A/Vietnam/HCM9727/2009 (VN9727s); assay type: cell-based, 2009 pandemic influenza A (H1N1) virus
[7] = tested on: A/Vietnam/HN32060/2009 (VN32060r); assay type: cell-based, 2009 pandemic influenza A (H1N1) virus
A/Osaka/180/2009 (O180r) [8] = assay type: cell-based, 2009 pandemic influenza A (H1N1) virus

SMILES	replication of VN32060r in the lungs of mice [1]	replication of O164s in the lungs of mice (A/Osaka/164/2009 (O164s) [2])	replication of VN9727s in the lungs of mice [3]	replication of O180r in the lungs of mice (A/Osaka/180/2009 (O180r) [4])	growth of O164s in the presence of NA inhibitor (A/Osaka/164/2009 (O164s) [5])	growth of VN9727s in the presence of NA inhibitor [6]	growth of VN32060r in the presence of NA inhibitor [7]	growth of O180r in the presence of NA inhibitor (A/Osaka/180/2009 (O180r) [8])	virus titers of O164s in the lungs of mice (A/Osaka/164/2009 (O164s) [2])	virus titers of VN9727s in the lungs of mice [3]
NC(=O)c1nc(F)c[nH]c1=O [favipiravir, Favipiravir]	significantly reduced	significantly reduced	significantly reduced	significantly reduced	–	–	–	–	–	–
CC(=O)N[C@H]1[C@H]([C@H](O)[C@H](O)CO)OC(C(=O)O)=C[C@@H]1N=C(N)N [Zanamivir]	–	–	–	–	inhibited the replication	inhibited the replication	inhibited the replication	inhibited the replication	–	–
[H]/N=C(\N)N[C@H]1C=C(C(=O)O)O[C@@H]([C@H](OC)[C@H](O)COC(=O)CCCCCCC)[C@@H]1NC(C)=O [CS-8958]	significantly reduced	significantly reduced	significantly reduced	significantly reduced	–	–	–	–	–	–
CCC(CC)O[C@@H]1C=C(C(=O)O)C[C@H](N)[C@H]1NC(C)=O [Oseltamivir carboxylate]	–	–	–	–	severely impaired	severely impaired	replicated efficiently	replicated efficiently	–	–
CCOC(=O)C1=C[C@@H](OC(CC)CC)[C@H](NC(C)=O)[C@@H](N)C1 [oseltamivir, oseltamivir phosphate]	not inhibited	–	–	not inhibited	–	–	–	–	significantly reduced	significantly reduced
